From patent publication US5932483A, “Synthetic peptide and its uses” (Northwestern University, priority 1996, dated 1999) come the findings set out here.

Assay [1] deals with pig aorta endothelial cells (PAECs), human serum. Briefly: Chromium release assay (PAEC assay). The format is cell-based. The protocol: Culture plates (Falcon 24-well plates, Becton Dickinson, Lincoln Park, N.J.) were coated by addition of 0.5 ml/well of 2% gelatin (Type B, from bovine skin, Sigma Chemical Co.) diluted 1:10 in Hanks buffered salt solution (Gibco BRL, Grand Island, N.Y.), followed by incubation for 15 min at room temperature. The gelatin solution was removed, and 125×10^3 pig aorta endothelial cells (PAECs, Cell Systems, Kirkland, Wash.) in 2 ml of cell culture medium (CCM, Dulbecco's modified Eagle's medium (DMEM) with high glucose (Gibco BRL) containing 20% defined fetal bovine serum (FBS, HyClone Laboratories, Logan, Utah) that had been heat inactived for 30 min at 56° C., 1%(v/v) L-glutamine (200 mM, Gibco BRL) and penicillin G sodium (10,000 units/ml)/streptomycin sulfate (10,000 μg/ml in 0.85% saline, Gibco BRL)] were added per well. The plate was centrifuged in a model GS-6R Beckman table top centrifuge at 20×g for 2 min with the brake off to settle the cells onto the gelatin in a even monolayer, after which the plate was incubated at 37° C. in 5% CO2 -95% air. After 4 hours, cell attachment had occurred, and the CCM was removed and replaced with 2 ml of fresh CCM. In 2-4 days the PAECs had grown to 80-100% confluence and were used in the complement mediated chromium release assay.
The PAECs were washed 3 times with 1 ml of serum free medium (SFM), leaving the SFM on the cells for 5 min each time. Chromium radioisotope (^51 Cr, NaCrO4, Amersham Corp., Arlington Heights, Ill.) was diluted in SFM to give 40 μCi/ml, and 100 μl were added to each well of the PAEC culture plate. The plate was incubated for 2 hours at 37° C. in 5% CO2 -95% air. The wells were washed three times with 1 ml of SFM. Then, 1 ml of PBS was added to each well, and the plate was incubated at 37° C. for 30 min to help reduce ^51 Cr background.
The various peptide inhibitors (diluted in SFM) were added (300 μl/well) and incubated with the PAECs at 37° C. for 30 min. Undiluted human serum (HS, 100 μl) or 100 μl of heat inactivated human serum (HIHS) was added to each well, and the plate was incubated at 37° C. for 1 hour. Supernatant (200 μl) was removed from each well and added to 200 μl of scintillation cocktail (OptiPhase `Supermix`, Wallac Inc., Turku, Finland) previously added to each well of a 24-well polyethylene terephtalate reading plate (Wallac Inc.), and the plate was sealed with an acetate plate sealer (Dynatech Laboratories, Chantilly, Va.). The reading plate was placed on a shaker for 5 min to obtain a homogeneous mixture. Radioactivity (CPMs) of the wells was counted for 2 min using the 1450 MicroBeta PLUS plate reader (Wallac Inc.).
Total counts of ^51 Cr were determined from 200 μl aliquots taken from the wells to which 100 μl of 5% Triton X-100 (Sigma Chemical Co.) had been added. Total complement mediated lysis was determined from wells treated with HS alone, and background counts were determined from wells treated with HI-HS alone or with peptide alone (no HS). The average background was subtracted from all well counts, and the percent inhibition calculated as total lysis minus lysis with inhibitor/total lysis multiplied by 100. All experimental points were obtained in triplicate, and the data were analyzed in the same manner as the data from the SRBC assays.

The subject of assay [2] is guinea pig hearts transplanted into C6 deficient PVG rats. Description: Heterotopic heart transplantation. Format: in vivo, rat. To be noted: pump 2ML4 (15.6 mg CBP2) plus i.v. 15.6 mg on day 2; 2 rats, individual values. The protocol:
Four to six week old guinea pigs (GP, Harlan, Indianapolis, Ind.) hearts were transplanted into C6 deficient PVG rats (B&K, Kent, Wash.) by a modification of the technique described by Ono and Lindsay (Journal of Thoracic Cardiovascular Surgery, 57, 225, 1969). Seven of the rats receiving GP hearts were not treated, 8 additional rats receiving GP hearts were treated with a single pre-transplant intravenous injection of a 3 ml cocktail of CBP3 [SEQ ID NO:4] (0.67 mg/ml) and 1.03 mg/ml of AEK [SEQ ID NO:5]. CBP3, 15.4 mg, was dissolved in 1.1 ml of 60% DMF in H2 O and AEK, 10 mg, was dissolved on 0.5 ml H2 O. Two hundred μl of CBP3 and 100 μl of AEK were added to 2.7 ml of 1:5 diluted (in PBS) heat-inactivated PVG C6 deficient rat serum. The GP transplanted hearts were monitored several times daily, and the times noted when the hearts stopped beating.
Two additional PVG C6 deficient rats were transplanted with GP hearts.
In a separate experiment, two C6 deficient PVG rats were transplanted with GP hearts.

Several values for one entry are separate records, joined by “and”; a condition that tells them apart may be missing. Identical values can stand only once. No end group written: not given here.

Take “LEQGENVFLQATLLC [CBP2, C1q B chain residues 189-200 plus Leu Leu Cys at the carboxyl terminus]”: the “% Inhibition PAEC Assay +/- S.D.” value in assay [1] (31 μM) was 2.0 +/- 3.1%; in assay [1] (62.5 μM) it was 10.6% and 10.6 +/- 13.5%; in assay [1] (125 μM), 25.0 +/- 14.8%; in assay [1] (250 μM), 64.4 +/- 8.4%; in assay [1] (500 μM) it was 87.2% and 87.2 +/- 3.8%. In assay [2], the “Graft Survival” value is 4 days and 5 days.
